By MIC is commonly meant the lowest concentration found to suppress growth. As a reminder, the ED50 is the dose that gives a 50% effect, or the effect in half of the subjects. Higher therefore signals weaker potency.

Structures are written as SMILES. Values after ≈ are worked out from the molar mass of the structure shown.

Format in all cases: functional
Assay [1] relates to Staphylococcus aureus. The assay is described as follows: Antibacterial activity against rifamycin-sensitive Staphylococcus aureus CB190.
Assay [2] relates to Staphylococcus aureus. The assay is described as follows: Antibacterial activity against intermediate rifamycin-resistant Staphylococcus aureus CB372 with rpoB Asp471Tyr mutation.
The test system of assay [3] is Staphylococcus aureus. The assay is described as follows: Antibacterial activity against rifamycin-resistant Staphylococcus aureus CB370 with rpoB His481Tyr mutation.
In assay [4] the test system is Staphylococcus aureus. The assay is described as follows: Antibacterial activity against Staphylococcus aureus ATCC 6538 induced-septicemia in po dosed mouse. The conditions noted are these: ATCC 6538, po.
Assay [5] deals with Staphylococcus aureus. The assay is described as follows: Antibacterial activity against Staphylococcus aureus ATCC 6538 induced-septicemia in sc dosed mouse. The following applies: ATCC 6538, sc.

Consider `CO[C@H]1/C=C/O[C@@]2(C)Oc3c(C)c(O)c4c(c3C2=O)C2=NC3(CCN(C)C3)CNC2=C(NC(=O)/C(C)=C\C=C\[C@H](C)[C@H](O)[C@@H](C)[C@@H](O)[C@@H](C)[C@H](OC(C)=O)[C@@H]1C)C4=O` (some centres undefined), for which the results for the MIC in the assay on Staphylococcus aureus [1], against Staphylococcus aureus [2] and with Staphylococcus aureus [3] were 0.013 µg/mL (≈ 0.0162 µM), 0.98 µg/mL (≈ 1.22 µM) and above 62.5 µg/mL, respectively.

Turning to `CO[C@H]1/C=C/O[C@@]2(C)Oc3c(C)c(O)c4c(c3C2=O)C2=NC3(CCN(Cc5cnc6ccccc6c5)C3)CNC2=C(NC(=O)/C(C)=C\C=C\[C@H](C)[C@H](O)[C@@H](C)[C@@H](O)[C@@H](C)[C@H](OC(C)=O)[C@@H]1C)C4=O` (some centres undefined), the values for the MIC in the assay with Staphylococcus aureus [1], against Staphylococcus aureus [2] and in the assay with Staphylococcus aureus [3] were 0.063 µg/mL (≈ 0.0676 µM), 7.81 µg/mL (≈ 8.38 µM) and above 62.5 µg/mL, respectively.

As for `CO[C@H]1/C=C/O[C@@]2(C)Oc3c(C)c(O)c4c(c3C2=O)C2=NC3(CCN(C(=O)OC(C)(C)C)CC3)CNC2=C(NC(=O)/C(C)=C\C=C\[C@H](C)[C@H](O)[C@@H](C)[C@@H](O)[C@@H](C)[C@H](OC(C)=O)[C@@H]1C)C4=O`, the MIC in the assay on Staphylococcus aureus [1] was 0.026 µg/mL (≈ 0.0287 µM); in the assay on Staphylococcus aureus [2] it was 7.81 µg/mL (≈ 8.63 µM); in the assay with Staphylococcus aureus [3] it was above 62.5 µg/mL.

As for `CO[C@H]1/C=C/O[C@@]2(C)Oc3c(C)c(O)c4c(c3C2=O)C2=NC3(CCN(CC(C)C)CC3)CNC2=C(NC(=O)/C(C)=C\C=C\[C@H](C)[C@H](O)[C@@H](C)[C@@H](O)[C@@H](C)[C@H](OC(C)=O)[C@@H]1C)C4=O`, the MIC against Staphylococcus aureus [1] is 0.063 µg/mL (≈ 0.0732 µM); against Staphylococcus aureus [2] it was 7.81 µg/mL (≈ 9.07 µM); with Staphylococcus aureus [3] it was above 62.5 µg/mL. Moreover, the ED50 in the assay on Staphylococcus aureus [4] was below 0.1 mg/kg; with Staphylococcus aureus [5] it was 0.6 mg/kg.

`CO[C@H]1/C=C/O[C@@]2(C)Oc3c(C)c(O)c4c(c3C2=O)C2=NC3(CCN(Cc5cnc6ccccc6c5)CC3)CNC2=C(NC(=O)/C(C)=C\C=C\[C@H](C)[C@H](O)[C@@H](C)[C@@H](O)[C@@H](C)[C@H](OC(C)=O)[C@@H]1C)C4=O`: the results for the MIC in the assay with Staphylococcus aureus [1], against Staphylococcus aureus [2] and with Staphylococcus aureus [3] were 0.063 µg/mL (≈ 0.0666 µM), 0.98 µg/mL (≈ 1.04 µM) and 15.6 µg/mL (≈ 16.5 µM), respectively. Further, the values for the ED50 with Staphylococcus aureus [4] and in the assay on Staphylococcus aureus [5] were 5 mg/kg and 0.6 mg/kg, respectively.

As for `CO[C@H]1/C=C/O[C@@]2(C)Oc3c(C)c(O)c4c(c3C2=O)C2=NC3(CCN(CC(C)C)C3)CNC2=C(NC(=O)/C(C)=C\C=C\[C@H](C)[C@H](O)[C@@H](C)[C@@H](O)[C@@H](C)[C@H](OC(C)=O)[C@@H]1C)C4=O` (some centres undefined), the MIC was 0.063 µg/mL (≈ 0.0744 µM) in the assay with Staphylococcus aureus [1], above 62.5 µg/mL with Staphylococcus aureus [2] and 31.3 µg/mL (≈ 37 µM) against Staphylococcus aureus [3].

`CO[C@H]1/C=C/O[C@@]2(C)Oc3c(C)c(O)c4c(c3C2=O)C2=NC3(CCN(C)CC3)CNC2=C(NC(=O)/C(C)=C\C=C\[C@H](C)[C@H](O)[C@@H](C)[C@@H](O)[C@@H](C)[C@H](OC(C)=O)[C@@H]1C)C4=O`: the MIC against Staphylococcus aureus [1] was 0.016 µg/mL (≈ 0.0195 µM); against Staphylococcus aureus [2], 1.95 µg/mL (≈ 2.38 µM); in the assay with Staphylococcus aureus [3] it was above 62.5 µg/mL. In addition, the ED50 in the assay with Staphylococcus aureus [4] was above 10 mg/kg; with Staphylococcus aureus [5], 0.3 mg/kg.

Turning to `CO[C@H]1/C=C/O[C@@]2(C)Oc3c(C)c(O)c4c(c3C2=O)C2=NC3(CCN(Cc5ccccc5)CC3)CNC2=C(NC(=O)/C(C)=C\C=C\[C@H](C)[C@H](O)[C@@H](C)[C@@H](O)[C@@H](C)[C@H](OC(C)=O)[C@@H]1C)C4=O`, the MIC in the assay on Staphylococcus aureus [1] was determined as 0.003 µg/mL (≈ 0.00335 µM); in the assay on Staphylococcus aureus [2], 1.95 µg/mL (≈ 2.18 µM); against Staphylococcus aureus [3], 32 µg/mL (≈ 35.8 µM).

Turning to `C=CCN1CCC2(CC1)CNC1=C3NC(=O)/C(C)=C\C=C\[C@H](C)[C@H](O)[C@@H](C)[C@@H](O)[C@@H](C)[C@H](OC(C)=O)[C@H](C)[C@@H](OC)/C=C/O[C@@]4(C)Oc5c(C)c(O)c(c(c5C4=O)C1=N2)C3=O`, the MIC with Staphylococcus aureus [1] was 0.006 µg/mL (≈ 0.0071 µM); in the assay with Staphylococcus aureus [2], 15.6 µg/mL (≈ 18.5 µM); in the assay with Staphylococcus aureus [3], above 62.5 µg/mL.

Take `CO[C@H]1/C=C/O[C@@]2(C)Oc3c(C)c(O)c4c(c3C2=O)C2=NC3(CCN(C(=O)OC(C)(C)C)C3)CNC2=C(NC(=O)/C(C)=C\C=C\[C@H](C)[C@H](O)[C@@H](C)[C@@H](O)[C@@H](C)[C@H](OC(C)=O)[C@@H]1C)C4=O` (some centres undefined): the MIC is 0.016 µg/mL (≈ 0.018 µM) against Staphylococcus aureus [1], 7.81 µg/mL (≈ 8.77 µM) against Staphylococcus aureus [2] and above 62.5 µg/mL against Staphylococcus aureus [3].

With `CO[C@H]1/C=C/O[C@@]2(C)Oc3c(C)c(O)c4c(c3C2=O)C2=NC3(CCN(Cc5ccccc5)C3)CNC2=C(NC(=O)/C(C)=C\C=C\[C@H](C)[C@H](O)[C@@H](C)[C@@H](O)[C@@H](C)[C@H](OC(C)=O)[C@@H]1C)C4=O` (some centres undefined), the MIC is 0.031 µg/mL (≈ 0.0352 µM) in the assay with Staphylococcus aureus [1], 3.91 µg/mL (≈ 4.44 µM) in the assay on Staphylococcus aureus [2] and above 62.5 µg/mL against Staphylococcus aureus [3].

Take `CO[C@H]1/C=C/O[C@@]2(C)Oc3c(C)c(O)c4c(c3C2=O)C2=NC3(CCN(CC(C)C)CC3)NC2=C(NC(=O)/C(C)=C\C=C\[C@H](C)[C@H](O)[C@@H](C)[C@@H](O)[C@@H](C)[C@H](OC(C)=O)[C@@H]1C)C4=O` [RIFABUTIN]: the MIC against Staphylococcus aureus [1] is 0.031 µg/mL (≈ 0.0366 µM); against Staphylococcus aureus [2], 15.6 µg/mL (≈ 18.4 µM); in the assay with Staphylococcus aureus [3] it was above 62.5 µg/mL. The median effective dose (ED50) in the assay on Staphylococcus aureus [4] was 0.6 mg/kg; with Staphylococcus aureus [5], below 0.1 mg/kg.

The record behind these values is ChEMBL document CHEMBL1148838, “Synthesis and antibacterial evaluation of a novel series of rifabutin-like spirorifamycins” (2007).
